Laboratory results taken from US11174223B2, “Compositions, methods, and systems for the synthesis and use of imaging agents” (Lantheus Medical Imaging, Inc., priority 2010, dated 2021).

Experiments:
NET [1] = molecular target: T1, NET (Homo sapiens, UniProt P23975); test: Competition binding assay in cell membranes over-expressing human NET; parameters: expressed in transfected cells
Method: Imaging agent-1 was designed as a substrate for the norepinephrine transporter (NET) to image the cardiac sympathetic nervous system. […] In animals, tissue biodistribution of imaging agent-1 was assessed by tissue sampling at 15- and 60-minute following administration.
The affinity (Ki) was determined in a competition binding assay by incubating ^19F-imaging agent-1, a cold analog of imaging agent-1, or NE with ^3H-desmethylimipramine in cell membrane overexpressing human NET. […] In SK—NSH cells, the uptake kinetics (Km and Vmax) were evaluated by measuring NET mediated uptake of imaging agent-1 or NE at various concentrations. Imaging agent-1 cardiac image quality was evaluated by PET imaging (˜1.5 mCi, i.v.) in rabbits in the presence and absence of desipramine (1 mg/kg).

[2] = system: norepinephrine transporter (NET), uptake 1; test: Heart uptake in rats after uptake 1 blockade (desipramine) or 6-hydroxydopamine sympathetic denervation; format: in vivo; conditions: 60 minutes post injection
Method: (§1) Desipramine, a selective uptake 1 inhibitor, was used to block cardiac uptake 1 in rats (10 mg/kg, ip), rabbits (1 mg/kg iv), and NHPs (0.5 mg/kg, iv). 6-hydroxydopamine, a neurotoxin, was injected to induce sympathetic denervation in rats (100 mg/kg ip for 7 days) and rabbits (25 mg/kg iv on day 1, 2, 7, and 8). Imaging agent-1 heart uptake in comparison with MIBG was assessed by tissue sampling at 60 minutes post imaging agent injection. Imaging was also performed with (2-tert-butyl-4-chloro-5-[4-(2-[^18F]fluoroethoxymethyl)-benzyloxy]-2H-pyridazin-3-1.

[3] = Cardiac PET imaging in rabbit model of regional cardiac sympathetic denervation (RCSD) and re-innervation; format: in vivo, rabbits
Method: Rabbit models of RCSD were developed by applying phenol directly on the surface of the left ventricular wall during a sternotomy. Two and twelve weeks following the procedure, imaging agent-1 cardiac PET imaging (˜1.5 mCi, iv) were performed in these rabbits. The myocardial area with radioactivity ≥50% maximum was quantified as innervated region for comparison. To evaluate susceptibility of arrhythmia in rabbits, dofetilide (10 and 40 μg/kg iv, a delayed IKr inhibitor) induced changes were assessed by measuring ECG including heart rate (HR), QTc interval (corrected by Fridericia method), and frequency of arrhythmia.

[4] = molecular target: T2, norepinephrine transporter (NET) (Homo sapiens, UniProt P23975); test: Uptake and uptake kinetics in SH-SY5Y human neuroblastoma cells; format: cell-based
T2 construct: endogenous in cells; host or cells: SH-SY5Y
Method: (§2) Imaging agent-1 was designed as a substrate for the norepinephrine transporter (NET) to image the cardiac sympathetic nervous system. […] These values were similar to that of MIBG (2.12±0.26 μM and 4.76±0.78 pmol/min/million cells). In animals, tissue biodistribution of imaging agent-1 was assessed by tissue sampling at 15- and 60-minute following administration. Heart uptake was 2.36±0.16 and 2.17±0.12% injected dose per g tissue (% ID/g) in rats and 0.25±0.03 and 0.28±0.03% ID/g in rabbits. In rabbits, desipramine (1 mg/kg) inhibited heart uptake of imaging agent-1 by 68% and ^123I-MIBG uptake by 55% at 1 hour post dose.

[5] = Tissue biodistribution by tissue sampling in rabbits; format: in vivo
Method: as §2

[6] = molecular target: T3, norepinephrine transporter (NET), uptake 1 (Oryctolagus cuniculus, UniProt G1TDF9); test: Heart uptake in rabbits after uptake 1 blockade (desipramine) or 6-hydroxydopamine sympathetic denervation; format: in vivo; conditions: rabbits
T3 construct: from tissue; host or cells: rabbit heart, in vivo
Method: as §2, §1

NET [7] = molecular target: T1, NET; test: NET mediated uptake kinetics in SK-N-SH cells; format: cell-based; parameters: endogenous in cells; host or cells: SK-N-SH
Method: The affinity (Ki) was determined in a competition binding assay by incubating ^19F-imaging agent-1, a cold analog of imaging agent-1, or NE with ^3H-desmethylimipramine in cell membrane overexpressing human NET. The uptake selectivity was assessed by measuring imaging agent-1 or ^3H-NE cell uptake with and without pretreatment of desipramine, a selective NET inhibitor, in SK—N—SH (human neuroblastoma) and PC-12 (rat pheochromocytoma) cells. In SK—NSH cells, the uptake kinetics (Km and Vmax) were evaluated by measuring NET mediated uptake of imaging agent-1 or NE at various concentrations. Imaging agent-1 cardiac image quality was evaluated by PET imaging (˜1.5 mCi, i.v.) in rabbits in the presence and absence of desipramine (1 mg/kg).

[8] = Whole organ bio-distribution and dosimetry from PET in healthy subjects; format: in vivo, human
Method: Whole organ bio-distribution and dosimetry for ^18F-labeled imaging agent-1 were determined based on PET image data from twelve healthy subjects. Image quantification, kinetic modeling to determine residence times, and dosimetry analysis were performed.
Head to mid-thigh PET image data for twelve healthy subjects were obtained using ^18F labeled imaging agent-1 at approximately 17, 31, 45, 117, 190, and 225 minutes post injection. Additionally, leg images were also obtained at approximately 66 and 274 minutes post injection. Image data were attenuation corrected at the imaging site, and were quantified based on the Medical Internal Radiation Dosimetry (MIRD) 16 methodology to determine kinetic data in all organs showing significant uptake of activity. Dosimetry estimates were created via kinetic modeling of the quantified image data to determine residence times, and the standard MIRD methodology using a method similar. Kinetic data, residence times, and the dosimetry estimates were reported for each subject and as summary statistics.

T1 sequence (P23975 whole entry): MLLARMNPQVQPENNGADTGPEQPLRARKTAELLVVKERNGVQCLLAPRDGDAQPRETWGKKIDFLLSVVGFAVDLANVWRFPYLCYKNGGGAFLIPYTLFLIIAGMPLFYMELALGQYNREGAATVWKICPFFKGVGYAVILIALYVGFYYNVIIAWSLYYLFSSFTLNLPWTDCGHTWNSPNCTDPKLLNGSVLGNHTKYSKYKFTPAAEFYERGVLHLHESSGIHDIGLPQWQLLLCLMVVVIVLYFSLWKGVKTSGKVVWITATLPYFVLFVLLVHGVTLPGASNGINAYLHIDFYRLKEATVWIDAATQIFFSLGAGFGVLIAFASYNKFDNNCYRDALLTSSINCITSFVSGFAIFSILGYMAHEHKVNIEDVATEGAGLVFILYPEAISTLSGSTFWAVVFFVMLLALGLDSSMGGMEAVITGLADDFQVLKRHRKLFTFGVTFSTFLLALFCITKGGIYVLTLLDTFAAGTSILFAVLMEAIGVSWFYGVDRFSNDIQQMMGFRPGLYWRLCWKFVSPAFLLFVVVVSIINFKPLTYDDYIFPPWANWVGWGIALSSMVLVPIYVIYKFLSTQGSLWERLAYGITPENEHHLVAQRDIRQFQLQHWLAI
T2 sequence (P23975 whole entry): as above
T3 sequence (G1TDF9 1-617): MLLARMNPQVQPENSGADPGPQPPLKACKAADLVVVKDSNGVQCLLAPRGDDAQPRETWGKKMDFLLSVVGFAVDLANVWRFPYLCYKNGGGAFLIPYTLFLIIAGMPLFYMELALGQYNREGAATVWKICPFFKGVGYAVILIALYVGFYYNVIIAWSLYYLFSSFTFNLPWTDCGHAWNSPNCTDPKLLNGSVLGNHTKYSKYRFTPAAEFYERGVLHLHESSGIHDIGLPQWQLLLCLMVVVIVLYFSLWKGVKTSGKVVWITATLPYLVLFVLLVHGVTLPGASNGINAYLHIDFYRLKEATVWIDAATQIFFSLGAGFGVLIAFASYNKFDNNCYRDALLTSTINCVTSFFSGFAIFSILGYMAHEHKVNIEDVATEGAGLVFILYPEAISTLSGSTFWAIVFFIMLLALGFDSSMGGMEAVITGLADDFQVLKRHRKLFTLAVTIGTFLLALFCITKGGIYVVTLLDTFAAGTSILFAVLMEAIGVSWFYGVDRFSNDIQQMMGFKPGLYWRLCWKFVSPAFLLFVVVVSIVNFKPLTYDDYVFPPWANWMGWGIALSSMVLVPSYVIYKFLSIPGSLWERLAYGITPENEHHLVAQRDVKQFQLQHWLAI

N=C(N)NCc1ccc(OCCC[18F])c(Br)c1 [imaging agent-1, 1-{3-Bromo-4-[3-[^18F]fluoropropoxy]benzyl}guanidine]
Ki (NET [1]; Example 25, cell membranes over-expressing the human NET): 5.16 ± 0.93 µM | Ki (NET [1]; Example 27, ^19F cold analog or NE vs ^3H-desmethylimipramine, membrane overexpressing human NET): 5.2 ± 1.1 µM | tissue uptake at 60 min ([2]; rat, heart, other: injection, rats, control group of denervation): 2.58 ± 0.76 %ID/g | Heart uptake ([2]; rats, control of uptake 1 blockade): 1.47±0.22 % ID/g | Heart uptake ([2]; rats, uptake 1 blocked (desipramine 10 mg/kg ip)): 1.41±0.07 % ID/g | Heart uptake ([2]; sympathetic denervated rats (6-hydroxydopamine)): 2.18±0.39 % ID/g | Innervated region (myocardial area with radioactivity ≥50% maximum) ([3]; phenol RCSD rabbits, 2 weeks post surgery): 12245±905 voxels | Innervated region (myocardial area with radioactivity ≥50% maximum) ([3]; phenol RCSD rabbits, 12 weeks): 16812±503 voxels | Innervated region (myocardial area with radioactivity ≥50% maximum) ([3]; sham-denervated rabbits): 20702±2190 voxels | Vmax (uptake kinetics) ([4]; SH-SY5Y cells): 5.18±1.23 pmol/min/million cells | Uptake in SH-SY5Y cells in presence of desipramine, a selective NET inhibitor ([4]; SH-SY5Y human neuroblastoma cell line): inhibited by desipramine | Heart uptake ([5]; 15-minute following administration): 0.25±0.03 % ID/g | Heart uptake ([5]; 60-minute following administration): 0.28±0.03 % ID/g | Decrease in heart uptake after sympathetic denervation with 6-hydroxydopamine ([6]; 6-OHDA i.v.): 79% | Inhibition of heart uptake by desipramine (uptake 1 blockade) ([6]; desipramine 1 mg/kg, 1 hour post dose): 68% | Vmax (NET mediated uptake) (NET [7]): 6.0±1.3 pMol/million cells/min | Ratio of myocardial to liver radioactivity ([8]; at 4 hours): more than two | Peak uptake, liver ([8]; average): approximately 15.5 % of the injected activity | Peak uptake, urinary bladder ([8]; average): approximately 18.3 % of the injected activity | Injected dose remaining in the myocardium ([8]; decay-corrected, through 4 hours after injection): above 1.5 % of ID | Blood radioactivity clearance ([8]; human, in vivo): cleared quickly | Lung activity ([8]; human, in vivo): low throughout the study | Tolerability ([8]; human, in vivo): well tolerated | Injected dose seen in the myocardium initially ([8]; initially): Approximately 1.6 % of the injected dose (ID) | Ratio of myocardial to liver radioactivity ([8]; initially): approximately one | Adverse events ([8]; twelve healthy subjects): No adverse events
